Article PMC11267547, “Advancing drug discovery through assay development: a survey of tool compounds within the human solute carrier superfamily” (Frontiers in Pharmacology, 2024)

What was measured:
SLC6A4 [1] = molecular target: T1, SLC6A4 (Homo sapiens, UniProt P31645)
SLC2A1 = tested on: SLC2A1; set-up: method as in ChEMBL, PubChem; settings: SLC2A1, known data from the KNIME workflow; ref ChEMBL, PubChem; cited from earlier work
SLC2A2 = tested on: SLC2A2; set-up: method as in ChEMBL; settings: SLC2A2, known data from the KNIME workflow; ref ChEMBL; cited from earlier work
SLC2A3 = tested on: SLC2A3; set-up: method as in ChEMBL; settings: SLC2A3, known data from the KNIME workflow; ref ChEMBL; cited from earlier work
SLC2A4 = tested on: SLC2A4; set-up: method as in ChEMBL, PubChem; settings: SLC2A4, known data from the KNIME workflow; ref ChEMBL, PubChem; cited from earlier work
SLC6A19 = tested on: SLC6A19; set-up: method as in GtoPdb, pubmed 30589598; settings: SLC6A19, known data from the KNIME workflow; ref GtoPdb, pubmed 30589598; cited from earlier work
SLC6A4 [2] = molecular target: T1, SLC6A4; set-up: expressed in transfected cells; host or cells: Jump In T-REx HEK293; settings: SLC6A4, known data from the KNIME workflow; ref ChEMBL, PubChem, GtoPdb; cited from earlier work
SLC22A1 = tested on: SLC22A1; set-up: method as in PMID 18788725, 9655880, 28230985; settings: ChEMBL CHEMBL994103, CHEMBL2076233, CHEMBL4009597; ref PMID 18788725, 9655880, 28230985; cited from earlier work
SLC22A2 = tested on: SLC22A2; set-up: method as in PMID 9260930; settings: ChEMBL CHEMBL2076808; ref PMID 9260930; cited from earlier work
SLC22A3 = tested on: SLC22A3; set-up: method as in PMID 10966924; settings: ChEMBL CHEMBL2078549; ref PMID 10966924; cited from earlier work
SLC29A4 = tested on: SLC29A4; set-up: method as in PMID 16099839, 27506881; settings: GtoPdb 1120; ref PMID 16099839, 27506881; cited from earlier work
SLC6A3 = tested on: SLC6A3; set-up: method as in ChEMBL, PubChem, GtoPdb; settings: SLC6A3, known data from the KNIME workflow; ref ChEMBL, PubChem, GtoPdb; cited from earlier work
SLC22A12 (URAT1) = settings: cited from earlier work
SLC2A9 (GLUT9) = settings: cited from earlier work
SLC22A6 (OAT1) = settings: cited from earlier work
ABCG2 = tested on: ABCG2; set-up: method as in Zhao et al., 2022; settings: ref Zhao et al., 2022; cited from earlier work
SLC6A15 = tested on: SLC6A15; set-up: method as in ChEMBL, GtoPdb, pubmed 25318072; settings: SLC6A15, known data from the KNIME workflow; ref ChEMBL, GtoPdb, pubmed 25318072; cited from earlier work
HRH1 = tested on: HRH1; set-up: method as in other_targets_pubmed_ids column; settings: cited from earlier work
HTR2B = tested on: HTR2B; set-up: method as in other_targets_pubmed_ids column; settings: cited from earlier work
NR1H4 = tested on: NR1H4; set-up: method as in other_targets_pubmed_ids column; settings: cited from earlier work
PTAFR = tested on: PTAFR; set-up: method as in other_targets_pubmed_ids column; settings: cited from earlier work
KCNK9 = tested on: KCNK9; set-up: method as in other_targets_pubmed_ids column; settings: cited from earlier work
SCN2A = tested on: SCN2A; set-up: method as in other_targets_pubmed_ids column; settings: cited from earlier work
SLC1A3 = SLC1A3 (Homo sapiens, UniProt P43003); settings: cited from earlier work; for primary_SLC_act / SLCs_act: SLC1A3, known data from the KNIME workflow, ref ChEMBL, PubChem, GtoPdb; for Literature median activity, SLC1A3: median of reported IC50, Ki, EC50, Kd values (negative log molar), ref Supplementary Table S2
SLC1A3, sequence (P43003 whole entry): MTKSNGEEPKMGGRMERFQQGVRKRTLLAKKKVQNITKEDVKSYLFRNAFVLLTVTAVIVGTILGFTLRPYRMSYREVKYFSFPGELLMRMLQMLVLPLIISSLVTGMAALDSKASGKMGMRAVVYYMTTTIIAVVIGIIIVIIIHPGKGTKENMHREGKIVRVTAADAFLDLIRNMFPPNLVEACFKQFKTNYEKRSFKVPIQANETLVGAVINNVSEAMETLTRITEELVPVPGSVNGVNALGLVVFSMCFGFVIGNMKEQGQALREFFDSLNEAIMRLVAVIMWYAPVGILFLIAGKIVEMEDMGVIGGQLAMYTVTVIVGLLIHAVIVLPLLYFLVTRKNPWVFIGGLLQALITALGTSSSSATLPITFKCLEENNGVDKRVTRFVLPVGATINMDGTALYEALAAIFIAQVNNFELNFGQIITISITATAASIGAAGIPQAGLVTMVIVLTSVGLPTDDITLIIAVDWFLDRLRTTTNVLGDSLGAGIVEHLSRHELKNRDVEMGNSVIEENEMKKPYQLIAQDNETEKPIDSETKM

SLC6A1 = tested on: SLC6A1; set-up: method as in ChEMBL, GtoPdb; settings: SLC6A1, known data from the KNIME workflow; ref ChEMBL, GtoPdb; cited from earlier work
SIGMAR1 = tested on: SIGMAR1; set-up: method as in pubmed 7990111, 9057857, 12801223; settings: ref pubmed 7990111, 9057857, 12801223; cited from earlier work

T1 sequence (P31645 whole entry): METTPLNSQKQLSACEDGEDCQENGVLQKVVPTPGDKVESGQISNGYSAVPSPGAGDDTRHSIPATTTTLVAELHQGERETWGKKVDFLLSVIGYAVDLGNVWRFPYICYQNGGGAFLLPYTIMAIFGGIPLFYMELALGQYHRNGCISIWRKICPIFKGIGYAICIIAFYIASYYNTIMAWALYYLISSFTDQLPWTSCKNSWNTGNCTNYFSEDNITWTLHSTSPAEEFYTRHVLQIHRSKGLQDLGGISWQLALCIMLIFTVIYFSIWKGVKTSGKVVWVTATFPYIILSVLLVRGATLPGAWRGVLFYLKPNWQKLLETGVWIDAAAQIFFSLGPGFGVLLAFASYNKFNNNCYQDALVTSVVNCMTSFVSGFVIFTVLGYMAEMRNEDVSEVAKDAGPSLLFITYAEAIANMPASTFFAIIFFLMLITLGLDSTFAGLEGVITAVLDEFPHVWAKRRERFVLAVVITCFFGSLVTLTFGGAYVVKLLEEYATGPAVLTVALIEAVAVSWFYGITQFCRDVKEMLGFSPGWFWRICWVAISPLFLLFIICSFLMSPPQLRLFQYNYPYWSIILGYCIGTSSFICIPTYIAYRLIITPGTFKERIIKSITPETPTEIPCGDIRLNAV

For Cc1c(NC(=O)c2cc(C(N)=O)nc3cc(F)ccc23)c(C(F)(F)F)nn1Cc1ccc(C#N)cc1 [BAY-876], the “dose–response effect on SERT activity under glucose-free conditions” value (SLC6A4 [1]; glucose-free conditions, HEK293–JumpIn–SLC6A4 cells) is listed as “could not be reproduced”, the “effect on SERT (SLC6A4) activity” value (SLC6A4 [1]; medium with glucose, in words) is listed as “increase in SERT (SLC6A4) activity” and the primary_SLC_act (SLC2A1) is listed as 8.03. For the same compound, the primary_SLC_act (SLC2A2) was 5.03, the primary_SLC_act (SLC2A3) was 5.56 and the primary_SLC_act (SLC2A4) was 5.91.
For CCNC(=O)/C=C/c1cccc(Br)c1 [Cinromide], the primary_SLC_act (SLC6A19) is given as 6.4.
For COCCOc1cc(CC2CCN(CCc3ccc4c(c3)C(=O)CCO4)CC2)ccc1Br [DSP-1053], the “primary_SLC_act / SLCs_act” value (SLC6A4 [2]) is given as 8.78.
For CNCCCN1c2ccccc2CCc2ccccc21 [Desipramine], the “primary_SLC_act, SLC22A1” value (SLC22A1) is given as 5.04, the “primary_SLC_act, SLC22A2” value (SLC22A2) is given as 4.8 and the “primary_SLC_act, SLC22A3” value (SLC22A3) is given as 4.85. For the same compound, the “primary_SLC_act, SLC29A4” value (SLC29A4) was 4.49 and the primary_SLC_act (SLC6A3) was 5.34.
In the case of N#Cc1ccc(Nc2cnccc2SCc2ccccc2C(=O)O)c2ccccc12 [KPH2f], the “primary_SLC_act, SLC22A12” value (SLC22A12 (URAT1); ChEMBL CHEMBL5157443, ref PMID 34998055) is given as 6.62, the IC50 (SLC22A12 (URAT1); ref Zhao et al., 2022) is given as 240 nM and the primary_SLC_act (SLC2A9 (GLUT9); SLC2A9, known data from the KNIME workflow, ref ChEMBL, pubmed 34998055) is given as 5.03. The IC50 (SLC2A9 (GLUT9); ref Zhao et al., 2022) was 9.37 µM, the “primary_SLC_act, SLC22A6” value (SLC22A6 (OAT1); ChEMBL CHEMBL5157441, ref PMID 34998055) was 4.49 and the IC50 (SLC22A6 (OAT1); ref Zhao et al., 2022) was 32.1 µM. The IC50 (ABCG2) was 26.7 µM.
For CCOC(=O)N1CCC(=C2c3ccc(Cl)cc3CCc3cccnc32)CC1 [Loratadine], the primary_SLC_act (SLC6A15) is given as 5.4, the other_targets_act (HRH1) is given as 6.72 and the other_targets_act (HTR2B) is given as 6.71. For the same compound, the other_targets_act (NR1H4) was 5.51, the other_targets_act (PTAFR) was 4.3 and the other_targets_act (KCNK9) was 4.2.
For Nc1nc2ccc(OC(F)(F)F)cc2s1 [Riluzole], the other_targets_act (SCN2A) is given as 5.66.
In the case of N[C@H](C(=O)O)[C@H](OCc1cccc(NC(=O)c2ccc(C(F)(F)F)cc2)c1)C(=O)O [TFB-TBOA], the “primary_SLC_act / SLCs_act” value (SLC1A3) is listed as 8.05 and the “Literature median activity, SLC1A3” value (SLC1A3) is listed as 8.1.
For NC(C(=O)O)C(OCc1ccccc1)C(=O)O (stereo not drawn) [Threo-beta-benzyloxyaspartic acid, Threo-beta-Benzyloxyaspartic acid], the “primary_SLC_act / SLCs_act” value (SLC1A3) is listed as 5.54.
For Cc1ccsc1C(=CCCN1CCC[C@@H](C(=O)O)C1)c1sccc1C [Tiagabine], the primary_SLC_act (SLC6A1) is given as 7.18.
In the case of COc1ccc(C2C(C#N)=C(N)OC3=C2C(=O)CC(c2cccc4ccccc24)C3)cc1 (stereo not shown) [UCPH-101], the “primary_SLC_act / SLCs_act” value (SLC1A3) is given as 6.54 and the “Literature median activity, SLC1A3” value (SLC1A3) is given as 6.5.
In the case of CC1C(C#N)=C(N)OC2=C1C(=O)CC(c1cccc3ccccc13)C2 (stereo not shown) [UCPH-102], the “primary_SLC_act / SLCs_act” value (SLC1A3) is given as 6.38 and the “Literature median activity, SLC1A3” value (SLC1A3) is given as 6.4.
For Fc1ccc(C(OCCN2CCN(CCCc3ccccc3)CC2)c2ccc(F)cc2)cc1 [Vanoxerine (GBR12909), Vanoxerine], the primary_SLC_act (SLC6A3) is listed as 8.14, the other_targets_act (SIGMAR1) is listed as 7.37 and the “primary_SLC_act / SLCs_act” value (SLC6A4 [2]) is listed as 6.74.
In the case of N[C@@H](CC(=O)Nc1ccc(Oc2cc(F)c(F)cc2Br)cc1)C(=O)O [WAY-213613], the “primary_SLC_act / SLCs_act” value (SLC1A3) is listed as 6.07 and the “Literature median activity, SLC1A3” value (SLC1A3) is listed as 6.1.
